Source: PMC6017552, “Interaction between Saikosaponin D, Paeoniflorin, and Human Serum Albumin” (Molecules : A Journal of Synthetic Chemistry and Natural …, 2018)

Target: T1, human serum albumin (HSA) (Homo sapiens, UniProt P02768)
T1 construct: gene ALB; mature full-length, 585 residues, 66500 Da, single chain
Test: intrinsic fluorescence quenching, double-log plot
Assay type: binding
Conditions: 20 °C, 0.01 M PBS pH 7.4, 1 μM HSA, 0-18 nM ligand, λex 280 nm
Excerpt: intrinsic fluorescence quenching, double-log plot on human serum albumin (HSA)

T1 sequence (P02768 25-609): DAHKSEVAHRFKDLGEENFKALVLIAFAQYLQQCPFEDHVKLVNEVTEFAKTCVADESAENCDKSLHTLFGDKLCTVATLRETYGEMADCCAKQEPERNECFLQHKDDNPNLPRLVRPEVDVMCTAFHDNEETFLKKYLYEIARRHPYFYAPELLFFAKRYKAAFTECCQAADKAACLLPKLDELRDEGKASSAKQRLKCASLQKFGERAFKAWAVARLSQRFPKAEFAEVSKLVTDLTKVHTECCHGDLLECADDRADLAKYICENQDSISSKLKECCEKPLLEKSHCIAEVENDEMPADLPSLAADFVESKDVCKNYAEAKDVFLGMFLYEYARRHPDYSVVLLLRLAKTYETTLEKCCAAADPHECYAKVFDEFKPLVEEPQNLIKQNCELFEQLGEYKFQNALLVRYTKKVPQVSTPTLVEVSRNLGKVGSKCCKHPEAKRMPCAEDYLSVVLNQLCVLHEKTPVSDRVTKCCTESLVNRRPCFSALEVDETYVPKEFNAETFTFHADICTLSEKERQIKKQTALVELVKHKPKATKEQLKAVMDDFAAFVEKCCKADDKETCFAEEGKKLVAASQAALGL

- Ka (mol.L^-1) ± SD: 7.39 × 10^4 ± 0.174 mol·L^-1
Compound: C[C@@]12C[C@@]3(O)O[C@@H](O1)[C@]1(COC(=O)c4ccccc4)[C@H]3C[C@@]12O[C@@H]1O[C@H](CO)[C@@H](O)[C@H](O)[C@H]1O [paeoniflorin]
